Reference: PubChem BioAssay AID1259407 (Chemical Carcinogenesis Research Information System (CCRIS), 2018)
The source made the active and inactive calls. How the calls were made is not given here.

Tested on: CCRIS mutagenicity, Ames/micronucleus/aberration tests
Assay: CCRIS mutagenicity studies
[1] = Test System: AMES SALMONELLA TYPHIMURIUM, Strain/Indicator: TA98, Metabolic Activation: NONE, Method: PREINCUBATION
[2] = Test System: AMES SALMONELLA TYPHIMURIUM, Strain/Indicator: TA100, Metabolic Activation: NONE, Method: PREINCUBATION

CCCCOC(=O)[C@@H](C)Oc1ccc(Oc2ccc(C#N)cc2F)cc1
mutagenic call (End Point: In vitro chromosomal aberrations, Test System: Chinese hamster lung (CHL) cells, Metabolic Activation: None): active; positive (ploidy) | mutagenic call (End Point: In vitro chromosomal aberrations, Test System: Chinese hamster lung (CHL) cells, Metabolic Activation: Rat, liver, S-9, Aroclor 1254): inactive; negative | mutagenic call (End Point: In vivo micronucleus, Test System: Bone marrow polychromatic erythgrocytes, Species: Mouse, Strain/Sex: ICR (Crj:CD-1)/ Female, Route: Oral (Gavage)): inactive; negative | mutagenic call (End Point: In vivo micronucleus, Test System: Bone marrow polychromatic erythgrocytes, Species: Mouse, Strain/Sex: ICR (Crj:CD-1)/ Male, Route: Oral (Gavage)): inactive; negative | mutagenic call (End Point: In vivo micronucleus, Test System: Bone marrow polychromatic erythrocytes, Species: Mouse, Strain/Sex: ICR (Crj:CD-1)/ Female, Route: Oral (Gavage)): inactive; negative | mutagenic call (End Point: In vivo micronucleus, Test System: Bone marrow polychromatic erythrocytes, Species: Mouse, Strain/Sex: ICR (Crj:CD-1)/ Male, Route: Oral (Gavage)): inactive; negative | mutagenic call (Test System: Ames Salmonella typhimurium, Strain/Indicator: TA98, Metabolic Activation: None, Method: Plate incorporation): inactive; negative | mutagenic call (Test System: Ames Salmonella typhimurium, Strain/Indicator: TA98, Metabolic Activation: Rat, liver, S-9, Aroclor-1254, Method: Plate incorporation): inactive; negative | mutagenic call (Test System: Ames Salmonella typhimurium, Strain/Indicator: TA100, Metabolic Activation: None, Method: Plate incorporation): inactive; negative | mutagenic call (Test System: Ames Salmonella typhimurium, Strain/Indicator: TA100, Metabolic Activation: Rat, liver, S-9, Aroclor-1254, Method: Plate incorporation): inactive; negative | mutagenic call (Test System: Ames Salmonella typhimurium, Strain/Indicator: TA1535, Metabolic Activation: None, Method: Plate incorporation): inactive; negative | mutagenic call (Test System: Ames Salmonella typhimurium, Strain/Indicator: TA1535, Metabolic Activation: Rat, liver, S-9, Aroclor-1254, Method: Plate incorporation): inactive; negative | mutagenic call (Test System: Ames Salmonella typhimurium, Strain/Indicator: TA1537, Metabolic Activation: None, Method: Plate incorporation): inactive; negative | mutagenic call (Test System: Ames Salmonella typhimurium, Strain/Indicator: TA1537, Metabolic Activation: Rat, liver, S-9, Aroclor-1254, Method: Plate incorporation): inactive; negative | mutagenic call (Test System: E. coli, Strain/Indicator: WP2 uvrA, Metabolic Activation: None, Method: Standard plate): inactive; negative | mutagenic call (Test System: E. coli, Strain/Indicator: WP2 uvrA, Metabolic Activation: Rat, liver, S-9, Aroclor-1254, Method: Standard plate): inactive; negative | mutagenic call (Test System: Mouse lymphoma, Strain/Indicator: L5178Y cells (TK+/TK-), Metabolic Activation: None, Method: Suspension/plate): inactive; negative | mutagenic call (Test System: Mouse lymphoma, Strain/Indicator: L5178Y cells (TK+/TK-), Metabolic Activation: Rat, liver, S-9, Aroclor-1254, Method: Suspension/plate): inactive; negative

Cc1cc([N+](=O)[O-])c(C)c2c1[nH]c1ccccc12
mutagenic call (Test System: AMES SALMONELLA TYPHIMURIUM, Strain/Indicator: TA98, Metabolic Activation: NONE, Method: STANDARD PLATE): active; positive | mutagenic call (Test System: AMES SALMONELLA TYPHIMURIUM, Strain/Indicator: TA98, Metabolic Activation: RAT LIVER S-9, AROCLOR 1254, Method: STANDARD PLATE): active; positive | mutagenic call (Test System: AMES SALMONELLA TYPHIMURIUM, Strain/Indicator: TA100, Metabolic Activation: NONE, Method: STANDARD PLATE): inactive; negative | mutagenic call (Test System: AMES SALMONELLA TYPHIMURIUM, Strain/Indicator: TA100, Metabolic Activation: RAT LIVER S-9, AROCLOR 1254, Method: STANDARD PLATE): inactive; negative | mutagenic call (Test System: AMES SALMONELLA TYPHIMURIUM, Strain/Indicator: TA1537, Metabolic Activation: NONE, Method: STANDARD PLATE): inactive; negative | mutagenic call (Test System: AMES SALMONELLA TYPHIMURIUM, Strain/Indicator: TA1537, Metabolic Activation: RAT LIVER S-9, AROCLOR 1254, Method: STANDARD PLATE): active; positive | mutagenic call (Test System: AMES SALMONELLA TYPHIMURIUM, Strain/Indicator: TA1977, Metabolic Activation: NONE, Method: STANDARD PLATE): active; positive | mutagenic call (Test System: AMES SALMONELLA TYPHIMURIUM, Strain/Indicator: TA1977, Metabolic Activation: RAT LIVER S-9, AROCLOR 1254, Method: STANDARD PLATE): active; positive

NC(=O)N(CCF)N=O
mutagenic call (Test System: E. COLI B, Strain/Indicator: H/R30R, Metabolic Activation: NONE): active; positive | mutagenic call (Test System: E. COLI B, Strain/Indicator: HS30R, Metabolic Activation: NONE): active; positive

Cc1ccc(C(C)(C)C)cc1
mutagenic call (Test System: AMES SALMONELLA TYPHIMURIUM, Strain/Indicator: TA98, Metabolic Activation: HAMSTER, LIVER, S-9, AROCLOR 1254 (10%), Method: PREINCUBATION): inactive; negative | mutagenic call [1]: inactive; negative | mutagenic call (Test System: AMES SALMONELLA TYPHIMURIUM, Strain/Indicator: TA98, Metabolic Activation: RAT, LIVER, S-9, AROCLOR 1254 (10%), Method: PREINCUBATION): inactive; negative | mutagenic call (Test System: AMES SALMONELLA TYPHIMURIUM, Strain/Indicator: TA100, Metabolic Activation: HAMSTER, LIVER, S-9, AROCLOR 1254 (10%), Method: PREINCUBATION): inactive; negative | mutagenic call [2]: inactive; negative | mutagenic call (Test System: AMES SALMONELLA TYPHIMURIUM, Strain/Indicator: TA100, Metabolic Activation: RAT, LIVER, S-9, AROCLOR 1254 (10%), Method: PREINCUBATION): inactive; negative | mutagenic call (Test System: AMES SALMONELLA TYPHIMURIUM, Strain/Indicator: TA1535, Metabolic Activation: HAMSTER, LIVER, S-9, AROCLOR 1254 (10%), Method: PREINCUBATION): inactive; negative | mutagenic call (Test System: AMES SALMONELLA TYPHIMURIUM, Strain/Indicator: TA1535, Metabolic Activation: NONE, Method: PREINCUBATION): inactive; negative | mutagenic call (Test System: AMES SALMONELLA TYPHIMURIUM, Strain/Indicator: TA1535, Metabolic Activation: RAT, LIVER, S-9, AROCLOR 1254 (10%), Method: PREINCUBATION): inactive; negative | mutagenic call (Test System: AMES SALMONELLA TYPHIMURIUM, Strain/Indicator: TA1537, Metabolic Activation: HAMSTER, LIVER, S-9, AROCLOR 1254 (10%), Method: PREINCUBATION): inactive; negative | mutagenic call (Test System: AMES SALMONELLA TYPHIMURIUM, Strain/Indicator: TA1537, Metabolic Activation: NONE, Method: PREINCUBATION): inactive; negative | mutagenic call (Test System: AMES SALMONELLA TYPHIMURIUM, Strain/Indicator: TA1537, Metabolic Activation: RAT, LIVER, S-9, AROCLOR 1254 (10%), Method: PREINCUBATION): inactive; negative

Nc1ccc(Cl)cc1[N+](=O)[O-]
mutagenic call (End Point: IN VITRO CHROMOSOMAL ABERRATIONS, Test System: CHINESE HAMSTER OVARY CELLS, Metabolic Activation: NONE): inactive; negative; precipitation occurred at 252 ug/ml | mutagenic call (End Point: IN VITRO CHROMOSOMAL ABERRATIONS, Test System: CHINESE HAMSTER OVARY CELLS, Metabolic Activation: RAT, LIVER, S-9, AROCLOR 1254): active; positive; precipitation occurred at all doses | mutagenic call (Test System: AMES SALMONELLA TYPHIMURIUM, Strain/Indicator: TA98(NR), Metabolic Activation: NONE, Method: STANDARD PLATE): inactive; negative | mutagenic call [1]: inactive; negative | mutagenic call (Test System: AMES SALMONELLA TYPHIMURIUM, Strain/Indicator: TA98, Metabolic Activation: RAT, LIVER, S-9, KANECHLOR 500, Method: PREINCUBATION): active; positive | mutagenic call [2]: inactive; negative | mutagenic call (Test System: AMES SALMONELLA TYPHIMURIUM, Strain/Indicator: TA1538, Metabolic Activation: NONE, Method: STANDARD PLATE): active; positive | mutagenic call (Test System: AMES SALMONELLA TYPHIMURIUM, Strain/Indicator: TA1538, Metabolic Activation: RAT, LIVER, S-9, AROCLOR 1254, Method: STANDARD PLATE): active; positive | mutagenic call (Test System: AMES SALMONELLA TYPHIMURIUM, Strain/Indicator: YG1020, Metabolic Activation: NONE, Method: STANDARD PLATE): active; positive | mutagenic call (Test System: AMES SALMONELLA TYPHIMURIUM, Strain/Indicator: YG1021, Metabolic Activation: NONE, Method: STANDARD PLATE): active; positive | mutagenic call (Test System: AMES SALMONELLA TYPHIMURIUM, Strain/Indicator: YG1024, Metabolic Activation: NONE, Method: STANDARD PLATE): active; positive
